Experimental data reported in patent publication US20070154543A1, “Solid preparation for oral use” (KYORIN PHARMACEUTICAL CO., LTD, priority 2003, published 2007).

Test: Pharmacokinetics of KRP-101 in plasma after oral or intravenous administration
Assay type: in vivo
Settings: male Beagle dog, intravenous, 0.5 mg/kg
Protocol: To a male Beagle dog, one tablet of the film-coated tablets obtained in Example 1 was administered orally or 0.5 mg/kg of KRP-101 were administered intravenously, and the concentration of KRP-101in plasma was measured until 24 hours after administration.

AUC (Total area under concentration-time curve): 1354 ng·h/mL
half-life (plasma, read-out: T½ (Elimination half-life) (converted)): 2.2 h
SMILES: CC[C@@H](Cc1ccc(OC)c(C(=O)NCc2ccc(Oc3ccc(F)cc3)cc2)c1)C(=O)O [KRP-101, (S)-2-[3-[N-[4-(4-fluorophenoxy)benzyl]carbamoyl]-4-methoxybenzyl]butanoic acid]
